Laboratory results reported in US20220227815A1, “COMPOSITIONS AND METHODS USEFUL IN TREATING BRAIN DISEASES” (University of Kansas, priority 2019, published 2022).
“Also recorded” adds a separate entry of the source. Positions of bridges follow the written chain, without caps; N, C: chain ends. Non-standard residues stand in square brackets, D forms with d. Residues, ends and D or L forms follow the SMILES beside them. ξ: configuration not given here. Thr(3ξ) = CC(O)[C@H](N)C(=O)O

Assays:
[1] = test system: blood-brain barrier (BBB); test: In vivo brain delivery of IRdye800CW-IgG mAb, NIRF quantification in brain homogenates; conditions: C57BL/6 mice
Protocol: The activity of each peptide in enhancing blood-brain barrier (BBB) penetration was evaluated by delivering IRdye800CW donkey anti-goat IgG mAb in C57BL/6 mice; the amounts of mAb in the brain were determined using NIRF imaging. Each group contained 3 mice per group (n=3) with a mixture of male and female mice, selected randomly for each arm of the study. The injection solution was prepared by adding 600 μL PBS into 0.5 mg lyophilized IgG mAb; then, approximately 1.5 mg lyophilized peptide was added into the mixture yielding the injectable formulation. A 100 μL solution of a mixture containing IgG mAb (21.6 nmol/kg) along with 13 μmol/kg peptide of the present technology was administered via tail vein. As a control, 100 μL of IgG mAb alone was administered via i.v. route. After the delivered molecules had been circulating for 15 min, the mice were sacrificed; then, a mixture of PBS with 0.5% Tween20 was administered for cardiac perfusion to remove the blood and […] molecules into the brain microvessels. The brain and other organs such as lung, heart, spleen, liver, and kidney were harvested and rinsed with PBS. The isolated organs were scanned with Odyssey® CLx for mAb quantification.
The brain deposition of IgG mAb was also quantified by NIRF imaging in brain homogenates. The isolated brains were mechanically homogenized in 2.0 mL of PBS. To make the standard solutions, IRDye800CW IgG mAb stock solution (70 μg/mL) was prepared; it was then diluted with various amounts of PBS to make six different mAb concentrations. To generate a calibration curve, the brain homogenate (200 μL) was aliquoted out to a 96-well plate. 10 μL of each concentration of IgG mAb was added to three different wells of blank brain homogenates. The standard spiked homogenates were at a range of 10-200 ng/mL IgG mAb in brain homogenate. The wells were scanned using the Odyssey® CLx scanner, and the signal intensities vs. concentrations of mAb per gram of brain were used to generate a calibration curve.
(§1) The BBB modulatory activities of ADTC5 and HAV6 to enhance brain delivery of IRdyeR800CW-labeled lysozyme, albumin, IgG mAb, and fibronectin were compared in C57BL/6 mice. The proteins with or without 13 μmol/kg HAV6 or ADTC5 were administered via tail vein injection. For lysozyme, the delivered doses were 21.6 and 54 nmol/kg. For albumin, IgG mAb, and fibronectin, the dose used was 21.6 nmol/kg. Fifteen minutes after IgG mAb administration with or without a peptide of the present technology, the animals were sacrificed and PBS with 0.5% Tween-20 was administered for cardiac perfusion to remove the remaining protein in the BBB microvessels. The brain and other organs such as lung, heart, spleen, liver and kidney were harvested and rinsed with PBS. Protein depositions in the brain and other organs were quantified by NIRF imaging using an Odyssey CLx NIRF scanner.
(§2) A second quantification method was done using brain homogenates. In this case, the brains were homogenized in 2.0 mL PBS by mechanical disruption and 200 μL of homogenized brain (n=8) was aliquoted to a 96-well plate followed by quantification using the Odyssey CLx scanner. The signal intensity was compared to calibration curve and normalized to brain weight and homogenate volume.

SJL/elite EAE mice = test: Suppression of EAE relapse, clinical scores; format: in vivo; conditions: BDNF 5.71 nmol/kg and/or ADTC5 10 μmol/kg i.v.
Protocol: EAE Mouse Model: EAE disease in animals (5-8-week-old SJL/elite female mice, Charles River) was stimulated by injecting 200 μg of PLP139-151 peptide in a 0.2 mL emulsion containing equal volumes of PBS and complete Freund's adjuvant (CFA) with killed mycobacterium tuberculosis strain H37RA (Difco, Detroit, Mich.; final concentration 4 mg/mL) as described in Kobayashi, N.; Kiptoo, P.; Kobayashi, H.; Ridwan, R.; Brocke, S.; Siahaan, T. J. Prophylactic and therapeutic suppression of experimental autoimmune encephalomyelitis by a novel bifunctional peptide inhibitor. Clin Immunol 2008, 129, (1), 69-79 and Kobayashi, N.; Kobayashi, H.; Gu, L.; Malefyt, T.; Siahaan, T. J. Antigen-specific suppression of experimental autoimmune encephalomyelitis by a novel bifunctional peptide inhibitor. J Pharmacol Exp Ther 2007, 322, (2), 879-86. Briefly, […] of PLP/CFA emulsion was administered to four different regions above the shoulders and the flanks on Day 0 followed by intraperitoneal injection of 200 ng of pertussis toxin (List Biological Laboratories, Campbell, Calif.) on Days 0 and 2. Clinical scores that reflect the disease progression were determined using an 11-point scale with 0.5 increments ranging from 0 to 5; 0 being no apparent disease and 5 being moribund. On Day 21, mice were randomly separated into […]: (i) BDNF (5.7 nmol/kg)+ADTC5 (10 μmol/kg; n=7), (ii) BDNF alone (5.71 nmol/kg, n=6), (iii) ADTC5 alone (10 μmol/kg; n=5), and (iv) vehicle (n=5). All mice received 8 intravenous injections every 4 days beginning on Day 21. The mice were euthanized via CO2 inhalation on Day 55. Area under the curve (AUC) calculations were used to compare clinical scores across groups; AUC calculations were performed using the trapezoid rule from Days 21 to 55.

[2] = test system: blood-brain barrier (BBB); test: Brain delivery of IRdye800CW-IgG mAb in SJL/elite mice, whole brain NIRF imaging; format: in vivo; conditions: IgG mAb 26.8 nmol/kg i.v. alone (n=4) or with ADTC5 13 μmol/kg (n=5), 15 min
Protocol: Brain Delivery IRdye800CW-labeled IgG mAb using ADTC5 in SJL/elite Mice. For initial evaluation of whether ADTC5 can deliver proteins into the brain, IRdye800CW donkey-anti-goat IgG mAb was administered via i.v. with and without ADTC5 peptide in 5-8-week-old SJL/elite mice. Two groups of healthy SJL/elite mice were injected with (a) a mixture of IgG mAb (26.8 nmol/kg) and ADTC5 peptide (13 μmol/kg) (n=5) and (b) IgG mAb alone (26.8 nmol/kg) (n=4). After 15 min in the systemic circulation, the mice were euthanized using CO2 inhalation followed by brain perfusion using PBS to remove the remaining protein in the BBB microvasculature. Next, the brains were isolated followed by NIRF imaging using Licor Odyssey CLx (Licor, Lincoln, Nebr.). Eight optical sections were taken at 0.5 mm increments beginning from the bottom surface of the brain to a depth of 4 mm. The optical sections were summed to yield a fluorescence intensity value per each brain.

[3] = test system: blood-brain barrier (BBB); test: In vivo brain delivery of IRdye800CW-lysozyme (15 kDa); design: species or system C57BL/6 mice
Protocol: Preparation of Stock and Standard Curves. The stock solution for IRDye800CW protein (i.e., lysozyme, 70 μg/mL) was prepared and stored at −80° C. The stock solution was later diluted with PBS to make the required standard solutions. To produce a standard calibration curve, 200 μL of blank brain homogenates was spiked with 10 μL standard solutions of various concentrations to yield a linear range from 0.5 to 50 ng/mL. The same method was employed for the sample's quality control (QC).
as §1, §2
(§3) Brain Perfusion. After euthanasia using CO2 chamber, mice were immediately subjected to cervical dislocation followed by removal of IRdye800CW-labeled protein from the brain capillaries using perfusion solution. In this case, a solution containing PBS with 0.2% Tween-20 was transcardially perfused to remove the remaining protein molecules in the brain endothelial microvessels. After perfusion, the brain was removed from the skull and subjected to capillary depletion.

[4] = test system: blood-brain barrier (BBB); test: In vivo brain delivery of IRdye800CW-albumin (65 kDa); conditions: IRdye800CW-albumin 21.6 nmol/kg i.v. alone or with 13 μmol/kg peptide; C57BL/6 mice
Protocol: as §1, §2, §3

[5] = test system: blood-brain barrier (BBB); test: In vivo brain delivery of IRdye800CW-fibronectin (220 kDa); design: species or system C57BL/6 mice
Protocol: as §1, §2, §3

[6] = IgG mAb 21.6 nmol/kg + 13 μmol/kg peptide i.v.

**Q.** For `CC(=O)N[C@H]1CSSC[C@@H](C(N)=O)NC(=O)[C@H](C(C)C)NC(=O)[C@@H]2CCCN2C(=O)[C@@H]2CCCN2C(=O)[C@H](C(C)O)NC(=O)[C@H](CC(=O)O)NC1=O` (some centres unmarked) [ADTC5, cyclo(1,7)acetyl-CDTPPVC-NH2] (Ac-CD[Thr(3ξ)]PPVC-NH2; disulfide 1-7), which “average amount of IgG mAb in the brain” value ([1]; IRdye800CW-IgG mAb 21.6 nmol/kg i.v. alone or with 13 μmol/kg peptide, 15 min circulation, n=3) is on record?
**A.** 13.3±0.7 pmol/g brain

**Q.** What about the “brain delivery of IgG mAb compared to control (IgG mAb alone)” value [1, 6] of the same compound?
**A.** significantly better than in the PBS control; also recorded: significant difference

**Q.** What about the “enhancement of mAb brain deposition relative to control” value [1, 6] of the same compound?
**A.** about three times that of control

**Q.** What about the “locomotion / paralysis observed” value (SJL/elite EAE mice; 8 injections) of the same compound?
**A.** partial or full hind leg paralysis and full tail paralysis

**Q.** What about the “EAE clinical body scores” value (SJL/elite EAE mice; 8 injections every 4 days from day 21, compared with other groups/vehicle) of the same compound?
**A.** no significant difference

**Q.** And the “whole brain NIRF signal of IRDye800CW-IgG mAb” value [2]?
**A.** significantly higher signal intensity

**Q.** And the “amount of lysozyme in the brain” value ([3]; IRdye800CW-lysozyme 54 nmol/kg i.v. alone or with 13 μmol/kg peptide, C57BL/6 mice)?
**A.** 37.8±7.1 pmol/g brain

**Q.** And the “brain delivery of lysozyme compared to lysozyme alone” value ([3]; lysozyme 21.6 nmol/kg with 13 μmol/kg peptide)?
**A.** no significant improvement

**Q.** And the “amount of albumin in the brain” value [4]?
**A.** 40.7±7.4 pmol/g brain

**Q.** What about the “NIRF signal of fibronectin in brain homogenates” value ([5]; IRdye800CW-fibronectin 21.6 nmol/kg i.v. alone or with ADTC5 13 μmol/kg) of the same compound?
**A.** 35.498±3.001 ×10^3 A.U.

**Q.** What about the “brain delivery of 220 kDa fibronectin” value ([5]; fibronectin 21.6 nmol/kg with ADTC5 13 μmol/kg vs fibronectin alone) of the same compound?
**A.** did not enhance
